target: T1, ALDH2 (Homo sapiens, UniProt P05091); experiment: Selectivity biochemical assay, NAD(P)H-Glo Detection System
T1 sequence (P05091 18-517): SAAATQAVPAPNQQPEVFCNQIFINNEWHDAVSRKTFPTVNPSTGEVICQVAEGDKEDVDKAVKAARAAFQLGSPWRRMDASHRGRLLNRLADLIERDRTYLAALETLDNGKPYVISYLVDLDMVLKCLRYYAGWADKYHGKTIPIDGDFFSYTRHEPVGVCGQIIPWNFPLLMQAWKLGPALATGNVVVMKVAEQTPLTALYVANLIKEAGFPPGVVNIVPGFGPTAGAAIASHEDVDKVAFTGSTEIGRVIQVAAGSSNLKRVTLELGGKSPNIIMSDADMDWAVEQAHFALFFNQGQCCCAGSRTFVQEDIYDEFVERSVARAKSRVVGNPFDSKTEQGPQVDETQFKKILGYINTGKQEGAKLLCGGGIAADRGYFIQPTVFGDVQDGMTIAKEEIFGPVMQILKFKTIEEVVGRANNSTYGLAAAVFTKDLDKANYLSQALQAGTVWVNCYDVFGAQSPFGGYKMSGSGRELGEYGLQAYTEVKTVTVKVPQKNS
Procedure: Materials: ALDH2 was purchased from Abnova. Tris(hydroxymethyl)aminomethane (Tris) was purchased from MP Biomedicals. TCEP, ethylenediaminetetraacetic acid (EDTA), propionaldehyde, DMSO and Tween-20 were purchased from Sigma. Nicotinamide adenine dinucleotide (NAD) was obtained from Abcam. The NAD(P)H-Glo™ Detection System was purchased from Promega. White, non-binding surface, 384 well plates were supplied by Corning (#3574).
Method: Inhibition of ALDH1A3 was assessed using the NAD(P)H-Glo™ Detection System (Cat. No. G9062) from Promega. This assay detects the production of NADH from NAD by ALDH1A3 via the coupled enzymatic conversion of a proluciferin reductase substrate to generate a luminescent signal. Inhibition of ALDH1A3 by small molecule inhibitors will result in reduction or abrogation of luminescence signal increase above background. Inhibition of ALDH1A1, ALDH1A2 and ALDH2 (selectivity assays) were assessed using the same assay.
Compounds were dosed into Corning 384 well assay plates using an Echo acoustic dispenser to give 10 point curves in a 3-fold dilution series. Compounds were dispensed from a 20 mM DMSO stock and initially screened at a top concentration of 20 μM (ALDH1A3) or 250 μM (ALDH1A1, ALDH1A2 & ALDH2). Enzyme was added to the plate in a 5 μL volume, according to the final concentrations in table 1 below, and pre-incubated with compound for 30 minutes at room temperature before the addition of 5 μL of the substrate (propionaldehyde) and cofactor (NAD), to effect final concentrations equal to the Km as shown in Table 1. The assay buffer used consisted of 40 mM Tris for 1A1 (pH 7.6), 1A2 (pH 7.6) and 1A3 (pH 9.0) and 10 mM Tris for ALDH2 (pH 8.0) supplemented with 1 mM TCEP, 0.01% Tween-20, 0.1 mM EDTA. The reaction mix was incubated at 26° C. on a shaking incubator for 30 minutes before being stopped by the addition of 10 μL of the Promega detection reagent and 100×IC50 of inhibitors of the respective isoforms. After stopping the reaction the plate was incubated for 60 minutes at room temperature and the luminescence signal read on a PheraStar FS microplate reader (BMG Labtech) and resulting IC50 values were calculated using Dotmatics software.
Enzyme, substrate and cofactor concentrations were selected to ensure the reaction ran under initial velocity conditions.

`O=C1CCc2cc(NC(=O)c3c[nH]nc3-c3cccc(F)c3)ccc2N1` [ALDHI-1006, 3-(3-fluorophenyl)-N-(2-oxo-1,2,3,4-tetrahydroquinolin-6-yl)-1H-pyrazole-4-carboxamide] and `O=C1CCc2cc(NC(=O)c3ocnc3-c3cccc(F)c3)ccc2N1` [ALDHI-1019, 4-(3-fluorophenyl)-N-(2-oxo-3,4-dihydro-1H-quinolin-6-yl)oxazole-5-carboxamide] cannot be ordered by IC50: 10 to 100 µM for the first, ≥ 100 µM for the second.

`O=C1CCc2cc(OCCN3CCCC3c3ccccn3)ccc2N1` (centres unmarked) [ALDHI-2006, 6-[2-[2-(2-pyridyl)pyrrolidin-1-yl]ethoxy]-3,4-dihydro-1H-quinolin-2-one] and `O=C1CSc2cc(OCCN3CCCC3c3ccccn3)ccc2N1` (centres unmarked) [ALDHI-2027, 7-[2-[2-(2-pyridyl)pyrrolidin-1-yl]ethoxy]-4H-1,4-benzothiazin-3-one] cannot be ordered by IC50: ≥ 100 µM for the first, ≥ 100 µM for the second.

`O=C1CCc2cc(OCCN3CCC3c3cccc(F)c3)ccc2N1` (centres unmarked) [ALDHI-2021, 6-[2-[2-(3-fluorophenyl)azetidin-1-yl]ethoxy]-3,4-dihydro-1H-quinolin-2-one] and `O=C1CCc2cc(OCCN3CCC[C@@H]3c3cccc(F)c3)ccc2N1` [ALDHI-2007, 6-[2-[(2R)-2-(3-fluorophenyl)pyrrolidin-1-yl]ethoxy]-3,4-dihydro-1H-quinolin-2-one] cannot be ordered by IC50: ≥ 100 µM for the first, ≥ 100 µM for the second.

`CN(CCOc1ccc2c(c1)CCC(=O)N2)C(=O)c1cccnc1` [ALDHI-3013, N-methyl-N-[2-[(2-oxo-3,4-dihydro-1H-quinolin-6-yl)oxy]ethyl]pyridine-3-carboxamide] and `CN(CCOc1ccc2c(c1)CCC(=O)N2)Cc1cccc(F)c1` [ALDHI-3001, 6-[2-[(3-fluorophenyl)methyl-methyl-amino]ethoxy]-3,4-dihydro-1H-quinolin-2-one] cannot be ordered by IC50: ≥ 100 µM for the first, ≥ 100 µM for the second.

`O=C1CCc2cc(OCCN(CCO)Cc3cccc(F)c3)ccc2N1` [ALDHI-3002, 6-[2-[(3-fluorophenyl)methyl-(2-hydroxyethyl)amino]ethoxy]-3,4-dihydro-1H-quinolin-2-one] and `CCN(CC)CCN(CCOc1ccc2c(c1)CCC(=O)N2)Cc1ccccc1` [ALDHI-3004, 6-[2-[benzyl-[2-(diethylamino)ethyl]amino]ethoxy]-3,4-dihydro-1H-quinolin-2-one] cannot be ordered by IC50: ≥ 100 µM for the first, ≥ 100 µM for the second.

`O=C1CCc2cc(NC(=O)c3scnc3-c3ccc(F)cc3)ccc2N1` [ALDHI-1017, 4-(4-fluorophenyl)-N-(2-oxo-1,2,3,4-tetrahydroquinolin-6-yl)thiazole-5-carboxamide] and `O=C1CCc2cc(NC(=O)c3scnc3-c3cccc(F)c3)ccc2N1` [ALDHI-1003, 4-(3-fluorophenyl)-N-(2-oxo-3,4-dihydro-1H-quinolin-6-yl)thiazole-5-carboxamide] cannot be ordered by IC50: ≥ 100 µM for the first, ≥ 100 µM for the second.

`Cc1ccc(C2CCCN2CCOc2ccc3c(c2)CCC(=O)N3)cc1` (centres unmarked) [ALDHI-2010, 6-[2-[2-(p-tolyl)pyrrolidin-1-yl]ethoxy]-3,4-dihydro-1H-quinolin-2-one] and `O=C1CCc2cc(OCCN3CCCC3c3ccc(F)cc3)ccc2N1` (centres unmarked) [ALDHI-2003, 6-[2-[2-(4-fluorophenyl)pyrrolidin-1-yl]ethoxy]-3,4-dihydro-1H-quinolin-2-one] cannot be ordered by IC50: ≥ 100 µM for the first, 10 to 100 µM for the second.

`Cc1cccc(C2CCCN2CCOc2ccc3c(c2)CCC(=O)N3)c1` (centres unmarked) [ALDHI-2011, 6-[2-[2-(m-tolyl)pyrrolidin-1-yl]ethoxy]-3,4-dihydro-1H-quinolin-2-one] and `O=C1CCc2cc(OCCN3CCCC3c3cccc(F)c3)ccc2N1` (centres unmarked) [ALDHI-2001, 6-[2-[2-(3-fluorophenyl)pyrrolidin-1-yl]ethoxy]-3,4-dihydro-1H-quinolin-2-one] cannot be ordered by IC50: ≥ 100 µM for the first, ≥ 100 µM for the second.

`O=C1CCc2cc(OCCN3CCCC3c3cccs3)ccc2N1` (centres unmarked) [ALDHI-2013, 6-[2-[2-(2-thienyl)pyrrolidin-1-yl]ethoxy]-3,4-dihydro-1H-quinolin-2-one] and `O=C1CCc2cc(OCCN3CCCC3c3ccncc3)ccc2N1` (centres unmarked) [ALDHI-2004, 6-[2-[2-(4-pyridyl)pyrrolidin-1-yl]ethoxy]-3,4-dihydro-1H-quinolin-2-one] cannot be ordered by IC50: ≥ 100 µM for the first, ≥ 100 µM for the second.

`O=C1CCc2cc(OCCn3nccc3-c3cccc(F)c3)ccc2N1` [ALDHI-2023, 6-[2-[5-(3-fluorophenyl)pyrazol-1-yl]ethoxy]-3,4-dihydro-1H-quinolin-2-one] and `O=C1CCc2cc(OCCN3CC(F)(F)CC3c3cccc(F)c3)ccc2N1` (centres unmarked) [ALDHI-2053, 6-[2-[4,4-difluoro-2-(3-fluorophenyl)pyrrolidin-1-yl]ethoxy]-3,4-dihydro-1H-quinolin-2-one] cannot be ordered by IC50: ≥ 100 µM for the first, ≥ 100 µM for the second.

`CC1CN(CCOc2ccc3c(c2)CCC(=O)N3)C(c2ccccc2)CO1` (mixture of isomers) [ALDHI-2042, 6-[2-(2-methyl-5-phenyl-morpholin-4-yl)ethoxy]-3,4-dihydro-1H-quinolin-2-one] and `C[C@H](c1ccccc1)N(CCO)CCOc1ccc2c(c1)CCC(=O)N2` [ALDHI-3006, 6-[2-[2-hydroxyethyl-[(1R)-1-phenylethyl]amino]ethoxy]-3,4-dihydro-1H-quinolin-2-one] cannot be ordered by IC50: ≥ 100 µM for the first, ≥ 100 µM for the second.

`O=C1COc2cc(OCCN3CCCC3c3cccc(F)c3)ccc2N1` (centres unmarked) [ALDHI-2009, 7-[2-[2-(3-fluorophenyl)pyrrolidin-1-yl]ethoxy]-4H-1,4-benzoxazin-3-one] and `CC1Oc2cc(OCCN3CCCC3c3cccc(F)c3)ccc2NC1=O` (centres unmarked) [ALDHI-2044, 7-[2-[2-(3-fluorophenyl)pyrrolidin-1-yl]ethoxy]-2-methyl-4H-1,4-benzoxazin-3-one] cannot be ordered by IC50: ≥ 100 µM for the first, ≥ 100 µM for the second.

`O=C1CCc2cc(NC(=O)c3sccc3-c3cccc(F)c3)ccc2N1` [ALDHI-1022, 3-(3-fluorophenyl)-N-(2-oxo-3,4-dihydro-1H-quinolin-6-yl)thiophene-2-carboxamide] and `O=C1CCc2cc(NC(=O)c3ccccc3-c3cccc(F)c3)ccc2N1` [ALDHI-1007, 3′-fluoro-N-(2-oxo-1,2,3,4-tetrahydroquinolin-6-yl)-[1,1′-biphenyl]-2-carboxamide] cannot be ordered by IC50: ≥ 100 µM for the first, ≥ 100 µM for the second.

`CCC1Oc2cc(OCCN3CCCC3c3cccc(F)c3)ccc2NC1=O` (centres unmarked) [ALDHI-2045, 2-ethyl-7-[2-[2-(3-fluorophenyl)pyrrolidin-1-yl]ethoxy]-4H-1,4-benzoxazin-3-one] and `O=C1CCCc2cc(OCCN3CCCC3c3cccc(F)c3)ccc2N1` (centres unmarked) [ALDHI-2020, 7-[2-[2-(3-fluorophenyl)pyrrolidin-1-yl]ethoxy]-1,3,4,5-tetrahydro-1-benzazepin-2-one] cannot be ordered by IC50: ≥ 100 µM for the first, ≥ 100 µM for the second.

`O=C1CCc2cc(OCCN3CCCC3c3cccc(F)c3)c(F)cc2N1` (centres unmarked) [ALDHI-2050, 7-fluoro-6-[2-[2-(3-fluorophenyl)pyrrolidin-1-yl]ethoxy]-3,4-dihydro-1H-quinolin-2-one] and `O=C1CCc2cc(OCCN3CCCC3c3ccc(F)c(F)c3)ccc2N1` (centres unmarked) [ALDHI-2039, 6-[2-[2-(3,4-difluorophenyl)pyrrolidin-1-yl]ethoxy]-3,4-dihydro-1H-quinolin-2-one] cannot be ordered by IC50: ≥ 100 µM for the first, ≥ 100 µM for the second.

`O=C1CCc2cc(NC(=O)c3scnc3-c3ccccc3F)ccc2N1` [ALDHI-1021, 4-(2-fluorophenyl)-N-(2-oxo-3,4-dihydro-1H-quinolin-6-yl)thiazole-5-carboxamide] and `O=C1CCc2cc(NC(=O)c3scnc3-c3cccs3)ccc2N1` [ALDHI-1023, N-(2-oxo-3,4-dihydro-1H-quinolin-6-yl)-4-(2-thienyl)thiazole-5-carboxamide] cannot be ordered by IC50: ≥ 100 µM for the first, ≥ 100 µM for the second.

`O=C1CCc2cc(NC(=O)c3ncsc3-c3cccnc3)ccc2N1` [ALDHI-1010, N-(2-oxo-3,4-dihydro-1H-quinolin-6-yl)-5-(3-pyridyl)thiazole-4-carboxamide] and `O=C1CCc2cc(NC(=O)c3ncsc3-c3ccsc3)ccc2N1` [ALDHI-1011, N-(2-oxo-3,4-dihydro-1H-quinolin-6-yl)-5-(3-thienyl)thiazole-4-carboxamide] cannot be ordered by IC50: ≥ 100 µM for the first, ≥ 100 µM for the second.

With `Cc1noc(-c2ccccc2C(=O)Nc2ccc3c(c2)CCC(=O)N3)n1` [ALDHI-1008, 2-(3-methyl-1,2,4-oxadiazol-5-yl)-N-(2-oxo-1,2,3,4-tetrahydroquinolin-6-yl)benzamide] the IC50 was ≥ 100 µM.
